Experimental data as given in patent publication US12377035B2, “Peptides for inhibiting cholinergic calcitonin gene-related peptide (CGRP) and acetylcholine (ACH) release or inhibiting sensitization-mediated by TRPV1-mediated excitability in sensory neurons and methods of use thereof” (AZIENDE CHIMICHE RIUNITE ANGELINI FRANCESCO—A.C.R.A.F. …, priority 2018, dated 2025).
Like-named read-outs stand apart in the source and are kept apart here. Residues, ends and D or L forms follow the SMILES beside them. *: point of attachment. Palmitoyl = CCCCCCCCCCCCCCCC(=O)*

Assays:
[1] = system: acetylcholine release, human neuroblastoma cell line differentiated to cholinergic neuronal phenotype; assay: Inhibition of KCl-induced acetylcholine release in a neuroblastoma cell line (Amplex Red); type: cell-based; details: for % Ach release inhibition: 50 mM KCl
Procedure: To determine the compound of the invention effects on acetylcholine release, a human neuroblastoma cell line (50.000 cells/well) was used. Cells were differentiated to cholinergic neuronal phenotype for 4 days. Then, cells were pre-incubated for 60 minutes with the compounds (between 0.1 and 100 μM) as acetyl- or palmitoyl-form and conjugated with trifluoroacetate (TFA) or acetate salt. Afterwards, acetylcholine release was induced by membrane depolarization evoked by 15 minutes incubation with 50 mM KCl. Acetylcholine level in supernatants was quantified by using Amplex® Red Acetylcholine Assay Kit (Thermofisher) following manufacturer's instructions. […] Fluorescence (Ex 530 nm/Em 590 nm) was measured in FluorStar equipment. Acetylcholine content was normalized to the total protein content using BCA assay (Pierce) following manufacturer's instructions. Fluorescence measurements were normalized to the maximum signal detected with KCl stimulation in vehicle treated cells. Vesicle exocytosis disruption by the compounds of the invention lead to a decrease of acetylcholine release (Table E).

[2] = system: pilocarpine-induced sweating, C57BL6/Rcc male mice; assay: Antiperspirant effect, chronic administration, pilocarpine-induced sweating mouse model; type: in vivo; details: during 4 weeks treatment, 100 μg/paw
Procedure: This example evaluated chronic effects of peptide of invention SEQ ID NO: 1 pamitoylated form, in an in vivo sweating model. This model was established using pilocarpine, a non-selective agonist of muscarinic receptors, in 11-weeks old C57BL6/Rcc male mice. Test compound was locally administered three times per week for 4 weeks (Treatment). Sweat was induced by intraplantar (i.pl) injection of pilocarpine (3 μg/paw) in the right hind paw (Sweating) once on weeks 1, 2 and 4 according to table H.
Test compound was injected i.pl. on the right hind paw (1, 10 and 100 μg), and vehicle was saline solution.
Sweating was monitored through amylase activity detection on skin surface using iodine/starch reaction. Dark sweating drops were quantified after 5 minutes induction counting number of drops per paw in each condition. Sample n=5-6 individuals per group. Data are expressed as mean #standard error of the mean (SEM). Raw data was normalized as percentage respect to non-injected stimulated individuals (control, 100%). Statistical analysis was one-way ANOVA followed by Dunnett's post-hoc multiple comparison test comparing each condition with the corresponding control group, ****p<0.0001 ***p<0.001 **p<0.01, *p<0.05

[3] = system: TRPV1-mediated excitability of sensory neurons (neonatal rat dorsal root ganglia); assay: In vitro functional assay for neuronal sensitization (microelectrode array, capsaicin pulses); type: cell-based, Wistar rats; details: for % Sensitization inhibition: incubated 1 hour, 100 - ratio P3/P1
Procedure: Isolated neonatal rat dorsal root ganglia from Wistar rats (3-5 days-old) were seeded microelectrode array chips in DMEM Glutamax, 10% FBS, 1% P/S supplemented with murine NGF. All experiments were performed after 48 h cell seeding.
Sensory neurons were sensitized by acute exposure to pro-inflammatory cocktail with bradykinin, histamine and ATP. TRPV1-mediated excitability was analyzed as stinging, burning and itching sensations are mainly driven by TRPV1. Repetitive application of TRPV1-agonist capsaicin (15 s-application 500 nM) allowed first activation (P1) followed by desensitization (second application). Desensitized cultures were sensitized with the cocktail to recover excitability, using external solution between the second (P2) and the third (P3) capsaicin pulse (8 min). To confirm cell viability 40 mM KCl was applied at the end. Test compound was incubated 1 hour before monitoring at 0.1, 1 and 10 µM. Test compound is the peptide having the following sequence (SEQ ID NO: 1): Palm-HYWRELQYR-NH2
Sensitization was calculated as ratio between P3 and P1 capsaicin pulse (ratio P3/P1), representing sensitized response induced by the pro-inflammatory cocktail. Inhibition percentage was calculated as 100-Sensitization. Data are expressed as mean±standard error of the mean (SEM), Statistical analysis was one-way ANOVA followed by Dunnett's post-hoc multiple comparison test comparing each condition with the corresponding sensitization control group, ****p<0.0001 ***p<0.001 **p<0.01, *p<0.05

[4] = system: pilocarpine-induced sweating, C57BL6/Rcc male mice; details: acute, at 10, 30 and 100 μg
Procedure: Test compound was injected intraplantar (i.pl.) on the right hind paw (10, 30 and 100 μg) 30 min before sweating stimulation. Vehicle was saline solution.
Sweating was monitored through amylase activity detection on skin surface using iodine/starch reaction. Dark sweating drops were quantified after 5 minutes induction counting number of drops per paw in each condition. Sample n=5-6 individuals per group. Data are expressed as mean±standard error of the mean (SEM). Raw data was normalized as percentage respect to non-injected stimulated individuals (Control, 100%) and saline-injected non-stimulated individuals (Vehicle, 0%). Statistical analysis was one-way ANOVA followed by Dunnett's post-hoc multiple comparison test comparing each condition with the corresponding control group, ****p<0.0001 ***p<0.001 **p<0.01, *p<0.05

[5] = system: CGRP induced-release on peptidergic sensory neurons (dorsal root ganglia); assay: Inhibition of capsaicin-induced CGRP release on cultured sensory neurons (CGRP EIA); type: cell-based; details: 1 hour, 1 μM capsaicin 10 min
Procedure: The induction of the release of calcitonin-gene related peptide (CGRP) with capsaicin enables direct measurement of neuronal exocytosis (Meng J. et al., J. Cell. Sci. (2007) 15; 120(Pt 16):2864-74, and Meng J. et al., Mol. Neurobiol. (2014); 50(2):574-88).
The tested peptides were evaluated by measuring their capability of inhibiting CGRP induced-release on peptidergic sensory neurons. Dorsal root ganglia were seeded (50.000 cells/well) in a 96-well plate previously coated with poly-L-lysine and laminin. After 48 hours seeding, cells were incubated with Hank's Balanced salt solution containing peptides of invention at 20, 50 or 100 μM for 1 hour. Next, cells were stimulated for 10 min with 1 μM capsaicin at 37° C. Then, CGRP content was determined in supernatants using colorimetric based CGRP EIA (Spi-Bio Inc) following manufacturer's instructions. Absorbance measurements (405 nm) were standardized with regard to the maximum signal detected with capsaicin stimulation in vehicle treated cells. Inhibition values of CGRP release were calculated as percentages by considering maximum signal to capsaicin-induced release and minimum as non-stimulated cells. Table D details inhibition values of […] obtained for the peptides of invention.

[6] = system: human epidermal keratinocytes (HEKa); assay: MTT cell viability assay on epidermal keratinocytes; type: cell-based; details: for % inhibition cell viability: HEKa, 24 hours
Procedure: (§1) This example evaluated effects of the peptides of invention on human epidermal keratinocytes and dermal fibroblasts. Cell viability was determined with the 3-(4,5-dimethyl-2-thiazolyl)-2,5-diphenyl-2H-tetrazolium bromide (MTT) assay. The MTT assay is a colorimetric reaction based on the capacity of the mitochondrial dehydrogenase enzyme to break and transform the tetrazolium rings of MTT. Epidermal keratinocytes (HEKa) were seeded in a previously coated 96 well-plate at 50-60% confluence in 100 μL of supplemented corresponding medium. Dermal fibroblasts (HDFa) were seeded in a 96 well-plate at 70% confluence in 100 μL supplemented medium. For both cell lines, 24 hours after seeding, medium was replaced by fresh supplemented medium containing peptides dissolved at concentration range between 0.1 and 200 μM. All test substances were incubated for 24 hours at 37° C. and 5% CO2. Afterwards, medium was replaced by 0.5 mg/ml of MTT solution for 4 hours in complete medium. Then, medium was carefully removed and 150 μL/well of DMSO were added to solubilize formazan crystals. Plate was protected from light, shaken for 60 seconds and optical density was measured at 570 nm with a reference filter of 620 nm. Table F details effects of peptides of invention on keratinocytes and fibroblasts cell viability expressed as percentage of inhibition.

[7] = system: human dermal fibroblasts (HDFa); assay: MTT cell viability assay on dermal fibroblasts; type: cell-based; details: for % inhibition cell viability: HDFa, 24 hours
Procedure: as §1

CCCCCCCCCCCCCCCC(=O)N[C@@H](Cc1c[nH]cn1)C(=O)N[C@@H](Cc1ccc(O)cc1)C(=O)N[C@@H](Cc1c[nH]c2ccccc12)C(=O)N[C@@H](CCCNC(=N)N)C(=O)N[C@@H](CCC(=O)O)C(=O)N[C@@H](CC(C)C)C(=O)N[C@@H](CCC(N)=O)C(=O)N[C@@H](Cc1ccc(O)cc1)C(=O)N[C@@H](CCCNC(=N)N)C(N)=O [SEQ ID NO: 1 palmitoyl, Palm-HYWRELQYR-NH2] (Palmitoyl-HYWRELQYR-NH2)
% Ach release inhibition ([1]; Acetate salt, 0.1 μM): 42.9%
% Ach release inhibition ([1]; Acetate salt, 1 μM): 81.3%
% Ach release inhibition ([1]; Acetate salt, 10 μM): 87.5%
% Ach release inhibition ([1]; TFA salt, 5 μM): 7.9%
% Ach release inhibition ([1]; TFA salt, 10 μM): 49.4%
% Ach release inhibition ([1]; TFA salt, 50 μM): 75.9%
effect on sweating (in words) [2]: significant sweating inhibition
% Sensitization inhibition ([3]; 0.1 μM): 69.7%
% Sensitization inhibition ([3]; 1 μM): 51.2%
% Sensitization inhibition ([3]; 10 μM): 59.7%
effect on sensitization process (in words) ([3]; at the three concentration (0.1, 1 and 10 µM)): significantly inhibited sensitization process with similar efficacy
effect on sweating (in words) [4]: significantly reduced sweating

CCCCCCCCCCCCCCCC(=O)N[C@@H](CCCNC(=N)N)C(=O)N[C@@H](CCCNC(=N)N)C(=O)N[C@H](C(=O)N[C@H](C(=O)N[C@@H](CC(C)C)C(=O)N[C@H](C(=O)N[C@@H](CC(N)=O)C(=O)N[C@@H](CC(N)=O)C(=O)N[C@H](C(=O)N[C@@H](CC(C)C)C(N)=O)[C@@H](C)CC)C(C)C)C(C)C)C(C)C [SEQ ID NO: 3 palmitoyl, RRVVLVNNIL] (Palmitoyl-RRVVLVNNIL-NH2)
% CGRP release inhibition ([5]; peptide 20 μM): 34.0%
% CGRP release inhibition ([5]; peptide 50 μM): 74.8%
% Ach release inhibition ([1]; Acetate salt, 0.1 μM): 57.0%
% Ach release inhibition ([1]; Acetate salt, 1 μM): 92.5%
% Ach release inhibition ([1]; Acetate salt, 10 μM): 86.7%
% Ach release inhibition ([1]; TFA salt, 5 μM): 75.4%
% Ach release inhibition ([1]; TFA salt, 10 μM): 81.8%
% Ach release inhibition ([1]; TFA salt, 50 μM): 82.8%
activity on ACh release (in words) ([1]; lowest concentration tested 0.1 μM): active
% inhibition cell viability ([6]; 0.1 μM): −3.8%
% inhibition cell viability ([6]; 0.5 μM): −0.9%
% inhibition cell viability ([6]; 1 μM): 11.7%
% inhibition cell viability ([6]; 5 μM): 9.9%
% inhibition cell viability ([6]; 10 μM): 22.4%
% inhibition cell viability ([6]; 50 μM): 24.8%
effect on keratinocyte viability (in words) ([6]; at 1 µM or below): did not modify keratinocyte and fibroblast viability
% inhibition cell viability ([7]; 0.1 μM): 6.0%
% inhibition cell viability ([7]; 0.5 μM): 15.5%
% inhibition cell viability ([7]; 1 μM): 8.7%
% inhibition cell viability ([7]; 5 μM): 25.7%
% inhibition cell viability ([7]; 10 μM): 27.2%
% inhibition cell viability ([7]; 50 μM): 24.3%
effect on fibroblast viability (in words) ([7]; at 1 µM or below): did not modify keratinocyte and fibroblast viability
